# Reference: ChEMBL document CHEMBL1149623, “Identification of antibacterial and antiviral activities of novel fused 1,2,4-triazine esters” (2007)
# Assays:
# [1] = Cytotoxicity against monkey GMK cells at 5 ug/mL after 48 hrs by MTT assay; format: functional, Chlorocebus aethiops
# [2] = Cytotoxicity against monkey GMK cells at 5 ug/mL after 24 hrs by MTT assay; format: functional, Chlorocebus aethiops
# [3] = Cytotoxicity against monkey GMK cells at 10 ug/mL after 96 hrs by MTT assay; format: functional, Chlorocebus aethiops
# [4] = test system: HEK293; assay: Cytotoxicity against human HEK293 cells at 50 ug/mL after 48 hrs by MTT assay; format: functional
# [5] = test system: Echovirus E9; assay: Antiviral activity against Human echovirus 9 in GMK cells assessed as virus titre at 100 ug/mL after 1 hr; format: functional
# [6] = Cytotoxicity against monkey GMK cells at 200 ug/mL after 48 hrs by MTT assay; format: functional, Chlorocebus aethiops
# [7] = Cytotoxicity against monkey GMK cells at 10 ug/mL after 120 hrs by MTT assay; format: functional, Chlorocebus aethiops
# [8] = test system: HEK293; assay: Cytotoxicity against human HEK293 cells at 10 ug/mL after 48 hrs by MTT assay; format: functional
# [9] = test system: HEK293; assay: Cytotoxicity against human HEK293 cells at 200 ug/mL after 120 hrs by MTT assay; format: functional
# [10] = test system: HEK293; assay: Cytotoxicity against human HEK293 cells at 5 ug/mL after 120 hrs by MTT assay; format: functional
# [11] = test system: HEK293; assay: Cytotoxicity against human HEK293 cells at 10 ug/mL after 72 hrs by MTT assay; format: functional
# [12] = Cytotoxicity against monkey GMK cells at 50 ug/mL after 24 hrs by MTT assay; format: functional, Chlorocebus aethiops
# [13] = Cytotoxicity against monkey GMK cells at 5 ug/mL after 96 hrs by MTT assay; format: functional, Chlorocebus aethiops
# [14] = Cytotoxicity against monkey GMK cells at 25 ug/mL after 72 hrs by MTT assay; format: functional, Chlorocebus aethiops
# [15] = test system: Echovirus E9; assay: Antiviral activity against Human echovirus 9 in GMK cells assessed as virus titre at 50 ug/mL after 1 hr; format: functional
# [16] = test system: HEK293; assay: Cytotoxicity against human HEK293 cells at 25 ug/mL after 24 hrs by MTT assay; format: functional
# [17] = test system: HEK293; assay: Cytotoxicity against human HEK293 cells at 5 ug/mL after 24 hrs by MTT assay; format: functional
# [18] = test system: Echovirus E9; assay: Antiviral activity against Human echovirus 9 in GMK cells assessed as virus titre at 200 ug/mL after 1 hr; format: functional
# [19] = test system: HEK293; assay: Cytotoxicity against human HEK293 cells at 200 ug/mL after 96 hrs by MTT assay; format: functional
# [20] = test system: HEK293; assay: Cytotoxicity against human HEK293 cells at 200 ug/mL after 24 hrs by MTT assay; format: functional
# [21] = test system: HEK293; assay: Cytotoxicity against human HEK293 cells at 25 ug/mL after 72 hrs by MTT assay; format: functional
# [22] = test system: HEK293; assay: Cytotoxicity against human HEK293 cells at 25 ug/mL after 48 hrs by MTT assay; format: functional
# [23] = test system: HEK293; assay: Cytotoxicity against human HEK293 cells at 10 ug/mL after 120 hrs by MTT assay; format: functional
# [24] = Cytotoxicity against monkey GMK cells at 100 ug/mL after 120 hrs by MTT assay; format: functional, Chlorocebus aethiops
# [25] = test system: HEK293; assay: Cytotoxicity against human HEK293 cells at 10 ug/mL after 24 hrs by MTT assay; format: functional
# [26] = Cytotoxicity against monkey GMK cells at 10 ug/mL after 24 hrs by MTT assay; format: functional, Chlorocebus aethiops
# [27] = test system: HEK293; assay: Cytotoxicity against human HEK293 cells at 25 ug/mL after 120 hrs by MTT assay; format: functional
# [28] = Cytotoxicity against monkey GMK cells at 50 ug/mL after 72 hrs by MTT assay; format: functional, Chlorocebus aethiops
# [29] = Cytotoxicity against monkey GMK cells at 200 ug/mL after 96 hrs by MTT assay; format: functional, Chlorocebus aethiops
# [30] = test system: HEK293; assay: Cytotoxicity against human HEK293 cells at 10 ug/mL after 96 hrs by MTT assay; format: functional
# [31] = Cytotoxicity against monkey GMK cells at 5 ug/mL after 120 hrs by MTT assay; format: functional, Chlorocebus aethiops
# [32] = test system: HEK293; assay: Cytotoxicity against human HEK293 cells at 200 ug/mL after 72 hrs by MTT assay; format: functional
# [33] = Cytotoxicity against monkey GMK cells at 25 ug/mL after 120 hrs by MTT assay; format: functional, Chlorocebus aethiops
# [34] = test system: HEK293; assay: Cytotoxicity against human HEK293 cells at 50 ug/mL after 24 hrs by MTT assay; format: functional
# [35] = Cytotoxicity against monkey GMK cells at 10 ug/mL after 72 hrs by MTT assay; format: functional, Chlorocebus aethiops
# [36] = test system: Human adenovirus 5; assay: Antiviral activity against Human adenovirus 5 in HEK293 cells assessed as virus titre at 50 ug/mL after 1 hr; format: functional
# [37] = test system: HEK293; assay: Cytotoxicity against human HEK293 cells at 25 ug/mL after 96 hrs by MTT assay; format: functional
# [38] = Cytotoxicity against monkey GMK cells at 200 ug/mL after 72 hrs by MTT assay; format: functional, Chlorocebus aethiops
# [39] = Cytotoxicity against monkey GMK cells at 2.5 ug/mL after 24 hrs by MTT assay; format: functional, Chlorocebus aethiops
# [40] = test system: HEK293; assay: Cytotoxicity against human HEK293 cells at 100 ug/mL after 48 hrs by MTT assay; format: functional
# [41] = test system: HEK293; assay: Cytotoxicity against human HEK293 cells at 50 ug/mL after 96 hrs by MTT assay; format: functional
# [42] = test system: HEK293; assay: Cytotoxicity against human HEK293 cells at 100 ug/mL after 96 hrs by MTT assay; format: functional
# [43] = test system: Human adenovirus 5; assay: Antiviral activity against Human adenovirus 5 in HEK293 cells assessed as virus titre at 100 ug/mL after 1 hr; format: functional
# [44] = test system: HEK293; assay: Cytotoxicity against human HEK293 cells at 50 ug/mL after 120 hrs by MTT assay; format: functional
# [45] = Cytotoxicity against monkey GMK cells at 5 ug/mL after 72 hrs by MTT assay; format: functional, Chlorocebus aethiops
# [46] = test system: HEK293; assay: Cytotoxicity against human HEK293 cells at 2.5 ug/mL after 120 hrs by MTT assay; format: functional
# [47] = Cytotoxicity against monkey GMK cells at 100 ug/mL after 24 hrs by MTT assay; format: functional, Chlorocebus aethiops
# [48] = Cytotoxicity against monkey GMK cells at 50 ug/mL after 96 hrs by MTT assay; format: functional, Chlorocebus aethiops
# [49] = Cytotoxicity against monkey GMK cells at 2.5 ug/mL after 120 hrs by MTT assay; format: functional, Chlorocebus aethiops
# [50] = test system: HEK293; assay: Cytotoxicity against human HEK293 cells at 200 ug/mL after 48 hrs by MTT assay; format: functional
# [51] = Cytotoxicity against monkey GMK cells at 10 ug/mL after 48 hrs by MTT assay; format: functional, Chlorocebus aethiops
# [52] = Cytotoxicity against monkey GMK cells at 2.5 ug/mL after 96 hrs by MTT assay; format: functional, Chlorocebus aethiops
# [53] = test system: HEK293; assay: Cytotoxicity against human HEK293 cells at 5 ug/mL after 96 hrs by MTT assay; format: functional
# [54] = test system: HEK293; assay: Cytotoxicity against human HEK293 cells at 2.5 ug/mL after 72 hrs by MTT assay; format: functional
# [55] = Cytotoxicity against monkey GMK cells at 100 ug/mL after 48 hrs by MTT assay; format: functional, Chlorocebus aethiops
# [56] = Cytotoxicity against monkey GMK cells at 50 ug/mL after 48 hrs by MTT assay; format: functional, Chlorocebus aethiops
# [57] = test system: HEK293; assay: Cytotoxicity against human HEK293 cells at 5 ug/mL after 48 hrs by MTT assay; format: functional
smiles,measurement,setting,value
COC(=O)CC1NN=C2N(CCN2c2cccc(Cl)c2)C1=O (stereo unspecified),Activity,[1],100%
same,Activity,[2],100%
same,Activity,[3],100%
same,Activity,[4],95%
same,TCID50,[5],3 mL⁻¹
same,Activity,[6],10%
same,Activity,[7],100%
same,Activity,[8],100%
same,Activity,[9],30%
same,Activity,[10],100%
same,Activity,[11],100%
same,Activity,[12],100%
same,Activity,[13],100%
same,Activity,[14],95%
same,TCID50,[15],3.33 mL⁻¹
same,Activity,[16],100%
same,Activity,[17],100%
same,TCID50,[18],3.33 mL⁻¹
same,Activity,[19],35%
same,Activity,[20],98%
same,Activity,[21],98%
same,Activity,[22],100%
same,Activity,[23],100%
same,Activity,[24],0%
same,Activity,[25],100%
same,Activity,[26],100%
same,Activity,[27],95%
same,Activity,[28],95%
same,Activity,[29],0%
same,Activity,[30],100%
same,Activity,[31],100%
same,Activity,[32],35%
same,Activity,[33],95%
same,Activity,[34],95%
same,Activity,[35],100%
same,TCID50,[36],3.5 mL⁻¹
same,Activity,[37],95%
same,Activity,[38],20%
same,Activity,[39],100%
same,Activity,[40],50%
same,Activity,[41],90%
same,Activity,[42],50%
same,TCID50,[43],3.5 mL⁻¹
same,Activity,[44],90%
same,Activity,[45],100%
same,Activity,[46],100%
same,Activity,[47],80%
same,Activity,[48],90%
same,Activity,[49],100%
same,Activity,[50],40%
same,Activity,[51],100%
same,Activity,[52],100%
same,Activity,[53],100%
same,Activity,[54],100%
same,Activity,[55],50%
same,Activity,[56],95%
same,Activity,[57],100%
CCOC(=O)CC1NN=C2N(CCN2c2ccc(C)cc2)C1=O (stereo unspecified),Activity,[1],100%
same,Activity,[2],100%
same,Activity,[3],95%
same,Activity,[4],80%
same,TCID50,[5],3.67 mL⁻¹
same,Activity,[6],0%
same,Activity,[7],90%
same,Activity,[8],100%
same,Activity,[9],15%
same,Activity,[10],100%
same,Activity,[11],100%
same,Activity,[12],90%
same,Activity,[13],100%
same,Activity,[14],85%
same,TCID50,[15],3.67 mL⁻¹
same,Activity,[16],100%
same,Activity,[17],100%
same,TCID50,[18],3.67 mL⁻¹
same,Activity,[19],15%
same,Activity,[20],30%
same,Activity,[21],100%
same,Activity,[22],100%
same,Activity,[23],100%
same,Activity,[24],70%
same,Activity,[25],100%
same,Activity,[26],100%
same,Activity,[27],95%
same,Activity,[28],80%
same,Activity,[29],0%
same,Activity,[30],100%
same,Activity,[31],100%
same,Activity,[32],15%
same,Activity,[33],70%
same,Activity,[34],90%
same,Activity,[35],100%
same,TCID50,[36],2.5 mL⁻¹
same,Activity,[37],95%
same,Activity,[38],0%
same,Activity,[39],100%
same,Activity,[40],80%
same,Activity,[41],70%
same,Activity,[42],70%
same,TCID50,[43],2.5 mL⁻¹
same,Activity,[44],75%
same,Activity,[45],100%
same,Activity,[46],100%
same,Activity,[47],90%
same,Activity,[48],70%
same,Activity,[49],100%
same,Activity,[50],20%
same,Activity,[51],100%
same,Activity,[52],100%
same,Activity,[53],100%
same,Activity,[54],100%
same,Activity,[55],80%
same,Activity,[56],80%
same,Activity,[57],100%
CCOC(=O)CC1NN=C2N(CCN2c2ccc(Cl)cc2)C1=O (stereo unspecified),Activity,[1],100%
same,Activity,[2],100%
same,Activity,[3],100%
same,Activity,[4],100%
same,TCID50,[5],3.67 mL⁻¹
same,Activity,[6],100%
same,Activity,[7],100%
same,Activity,[8],100%
same,Activity,[9],20%
same,Activity,[10],100%
same,Activity,[11],100%
same,Activity,[12],100%
same,Activity,[13],100%
same,Activity,[14],100%
same,TCID50,[15],4.23 mL⁻¹
same,Activity,[16],100%
same,Activity,[17],100%
same,TCID50,[18],3.5 mL⁻¹
same,Activity,[19],25%
same,Activity,[20],50%
same,Activity,[21],100%
same,Activity,[22],100%
same,Activity,[23],100%
same,Activity,[24],100%
same,Activity,[25],100%
same,Activity,[26],100%
same,Activity,[27],100%
same,Activity,[28],100%
same,Activity,[29],95%
same,Activity,[30],100%
same,Activity,[31],100%
same,Activity,[32],25%
same,Activity,[33],100%
same,Activity,[34],100%
same,Activity,[35],100%
same,TCID50,[36],3.5 mL⁻¹
same,Activity,[37],100%
same,Activity,[38],100%
same,Activity,[39],100%
same,Activity,[40],90%
same,Activity,[41],100%
same,Activity,[42],70%
same,TCID50,[43],3.5 mL⁻¹
same,Activity,[44],100%
same,Activity,[45],100%
same,Activity,[46],100%
same,Activity,[47],100%
same,Activity,[48],100%
same,Activity,[49],100%
same,Activity,[50],30%
same,Activity,[51],100%
same,Activity,[52],100%
same,Activity,[53],100%
same,Activity,[54],100%
same,Activity,[55],100%
same,Activity,[56],100%
same,Activity,[57],100%
